Data on nine molecules can be found in PubChem BioAssay AID248 (DTP/NCI, 2004).

The structures appear in SMILES notation. Several values for one entry are separate records, joined by “and”; a condition that tells them apart may be missing. Equal entries are not always repeated. Inconclusive results and toxic doses are left out.

The test system of this assay is L1210 leukemia ip in BDF1 mice, survival T/C. As to the kind of experiment: NCI In Vivo Anticancer Drug Screen. Data for tumor model L1210 Leukemia (intraperitoneal) in B6D2F1 (BDF1) mice. Conditions: endpoint: mean survival time, higher = longer survival. Summed up: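 Each compound was tested against a transplantable tumor grown in mice. The endpoint was survival, with treated animals benchmarked against vehicle controls as a simple ratio.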

Where [1] appears, read: dose: 25.0 mg/kg/injection, schedule: Q04DX003 (ip), vehicle: saline with Tween-80.
Where [2] appears, read: dose: 100.0 mg/kg/injection, schedule: Q04DX003 (ip), vehicle: saline with Tween-80.

Consider `CC(C)(Cc1ccccc1)NC(=O)N(CCCl)N=O`, for which the T/C runs as follows: (dose: 31.0 mg/kg/injection, schedule: Q01DX001 (ip), vehicle: other) 124 % of control; (dose: 62.0 mg/kg/injection, schedule: Q01DX001 (ip), vehicle: other) 151 % of control; (dose: 250.0 mg/kg/injection, schedule: Q01DX001 (ip), vehicle: other) 194 % of control; (dose: 375.0 mg/kg/injection, schedule: Q01DX001 (ip), vehicle: other) 244 % of control; (dose: 500.0 mg/kg/injection, schedule: Q01DX001 (ip), vehicle: other) 273 % of control; (dose: 750.0 mg/kg/injection, schedule: Q01DX001 (ip), vehicle: other) 263 % of control. In addition, the T/C (dose: 1000.0 mg/kg/injection, schedule: Q01DX001 (ip), vehicle: other) is 111 % of control.

For the molecule `CCCCCc1ccc(C(=O)O)cc1`, the T/C is, setting by setting: (dose: 25.0 mg/kg/injection, schedule: Q01DX009 (ip), vehicle: saline with Tween-80) 103 % of control; under setting [1], 106 % of control; (dose: 50.0 mg/kg/injection, schedule: Q01DX009 (ip), vehicle: saline with Tween-80) 98 % of control; (dose: 50.0 mg/kg/injection, schedule: Q04DX003 (ip), vehicle: saline with Tween-80) 101 % of control; (dose: 100.0 mg/kg/injection, schedule: Q01DX009 (ip), vehicle: saline with Tween-80) 97 % of control; under setting [2], 98 % of control and 102 % of control.

With `Nc1ccc(NC(=O)Nc2ccccc2)cc1`, the T/C reads like this: (dose: 100.0 mg/kg/injection, schedule: Q04DX002 (ip), vehicle: Klucel (hydroxypropylcellulose) (HPC)) 101 % of control; (dose: 200.0 mg/kg/injection, schedule: Q04DX002 (ip), vehicle: Klucel (hydroxypropylcellulose) (HPC)) 90 % of control; (dose: 400.0 mg/kg/injection, schedule: Q04DX002 (ip), vehicle: Klucel (hydroxypropylcellulose) (HPC)) 101 % of control.

`O=C1C=CC(=O)N1c1ccc(Br)cc1Cl`: the T/C (dose: 0.78 mg/kg/injection, schedule: Q04DX003 (ip), vehicle: saline) was 91 % of control; the T/C (dose: 1.0 mg/kg/injection, schedule: Q01DX009 (ip), vehicle: saline) is 101 % of control; the T/C (dose: 1.56 mg/kg/injection, schedule: Q04DX003 (ip), vehicle: saline) is 93 % of control; the T/C (dose: 2.0 mg/kg/injection, schedule: Q01DX009 (ip), vehicle: saline) was 110 % of control; the T/C (dose: 3.13 mg/kg/injection, schedule: Q04DX003 (ip), vehicle: saline) is 106 % of control; the T/C (dose: 4.0 mg/kg/injection, schedule: Q01DX009 (ip), vehicle: saline) is 89 % of control. The T/C is, setting by setting: under setting [1], 100 % of control; (dose: 100.0 mg/kg/injection, schedule: Q04DX003 (ip), vehicle: Klucel (hydroxypropylcellulose) (HPC)) 93 % of control.

For the molecule `Cc1cc2c(cc1C)C(O)C(N1CCCCC1)CCC2` (stereo unspecified), the T/C was 100 % of control under setting [2]; 92 % of control (dose: 200.0 mg/kg/injection, schedule: Q04DX003 (ip), vehicle: saline with Tween-80); 90 % of control (dose: 400.0 mg/kg/injection, schedule: Q04DX003 (ip), vehicle: saline with Tween-80).

For the molecule `CC(C)(CO)NCc1ccc(Cl)c(Cl)c1`, the T/C (dose: 100.0 mg/kg/injection, schedule: Q01DX009 (ip), vehicle: Klucel (hydroxypropylcellulose) (HPC)) was 98 % of control; the T/C (dose: 100.0 mg/kg/injection, schedule: Q04DX003 (ip), vehicle: saline) was 106 % of control; the T/C (dose: 200.0 mg/kg/injection, schedule: Q01DX009 (ip), vehicle: Klucel (hydroxypropylcellulose) (HPC)) is 102 % of control; the T/C (dose: 200.0 mg/kg/injection, schedule: Q04DX003 (ip), vehicle: saline) is 97 % of control; the T/C (dose: 400.0 mg/kg/injection, schedule: Q04DX003 (ip), vehicle: saline) was 97 % of control.

Consider `CN(C)CC/C=C1\c2ccccc2Sc2ccc(Cl)cc21`, for which the T/C runs as follows: (dose: 0.04 mg/kg/injection, schedule: Q03HX024 (ip), vehicle: saline) 107 % of control; (dose: 0.09 mg/kg/injection, schedule: Q03HX024 (ip), vehicle: saline) 105 % of control; (dose: 0.18 mg/kg/injection, schedule: Q03HX024 (ip), vehicle: saline) 102 % of control; (dose: 0.36 mg/kg/injection, schedule: Q01DX001 (ip), vehicle: Klucel (hydroxypropylcellulose) (HPC)) 102 % of control; (dose: 0.37 mg/kg/injection, schedule: Q03HX024 (ip), vehicle: saline) 105 % of control; (dose: 0.73 mg/kg/injection, schedule: Q01DX001 (ip), vehicle: Klucel (hydroxypropylcellulose) (HPC)) 97 % of control. The T/C is, setting by setting: (dose: 0.74 mg/kg/injection, schedule: Q03HX024 (ip), vehicle: saline) 107 % of control; (dose: 1.46 mg/kg/injection, schedule: Q01DX001 (ip), vehicle: Klucel (hydroxypropylcellulose) (HPC)) 108 % of control; (dose: 1.49 mg/kg/injection, schedule: Q03HX024 (ip), vehicle: Klucel (hydroxypropylcellulose) (HPC)) 103 % of control; (dose: 2.92 mg/kg/injection, schedule: Q01DX001 (ip), vehicle: Klucel (hydroxypropylcellulose) (HPC)) 105 % of control; (dose: 3.8 mg/kg/injection, schedule: Q01DX001 (ip), vehicle: Klucel (hydroxypropylcellulose) (HPC)) 107 % of control; (dose: 3.9 mg/kg/injection, schedule: Q01DX009 (ip), vehicle: Klucel (hydroxypropylcellulose) (HPC)) 105 % of control. Further, the T/C by setting is: (dose: 5.6 mg/kg/injection, schedule: Q01DX001 (ip), vehicle: saline) 101 % of control; (dose: 5.85 mg/kg/injection, schedule: Q01DX001 (ip), vehicle: Klucel (hydroxypropylcellulose) (HPC)) 105 % of control; (dose: 7.5 mg/kg/injection, schedule: Q01DX001 (ip), vehicle: Klucel (hydroxypropylcellulose) (HPC)) 104 % of control; (dose: 7.81 mg/kg/injection, schedule: Q01DX009 (ip), vehicle: Klucel (hydroxypropylcellulose) (HPC)) 92 % of control; (dose: 11.25 mg/kg/injection, schedule: Q01DX001 (ip), vehicle: saline) 104 % of control; (dose: 15.0 mg/kg/injection, schedule: Q01DX001 (ip), vehicle: Klucel (hydroxypropylcellulose) (HPC)) 107 % of control. Further, the T/C was 110 % of control (dose: 15.62 mg/kg/injection, schedule: Q01DX009 (ip), vehicle: Klucel (hydroxypropylcellulose) (HPC)); 101 % of control (dose: 22.5 mg/kg/injection, schedule: Q01DX001 (ip), vehicle: saline); 121 % of control (dose: 23.43 mg/kg/injection, schedule: Q01DX001 (ip), vehicle: Klucel (hydroxypropylcellulose) (HPC)); 112 % of control (dose: 30.0 mg/kg/injection, schedule: Q01DX001 (ip), vehicle: Klucel (hydroxypropylcellulose) (HPC)); 108 % of control (dose: 31.25 mg/kg/injection, schedule: Q01DX009 (ip), vehicle: Klucel (hydroxypropylcellulose) (HPC)); 107 % of control (dose: 31.25 mg/kg/injection, schedule: Q04DX003 (ip), vehicle: Klucel (hydroxypropylcellulose) (HPC)).

For `O=C1NCCCN1C1OC(CO)C(O)C1O` (stereo unspecified), the T/C was 107 % of control (dose: 100.0 mg/kg/injection, schedule: Q01DX005 (ip), vehicle: saline) and 104 % of control (dose: 200.0 mg/kg/injection, schedule: Q01DX005 (ip), vehicle: saline).

Turning to `CCOC(=O)C[N+]1(C)C2CCC1CC(O)C2` (stereo unspecified), the T/C is 94 % of control (dose: 100.0 mg/kg/injection, schedule: Q01DX001 (ip), vehicle: saline); 90 % of control (dose: 200.0 mg/kg/injection, schedule: Q01DX001 (ip), vehicle: saline); 94 % of control (dose: 400.0 mg/kg/injection, schedule: Q01DX001 (ip), vehicle: saline).
